Test results reported in patent US6346622B1, “2-substituted 1,2-benzisothiazole derivatives and their use as serotonin antagonists (5-HT1A, 5HT1B and 5-HT1D)” (Abbott Laboratories, priority 1997, dated 2002).
Structures can show the parent of a compound that is named as a salt.

Legend:
[1] = system: serotonin release in the cortex; details: after systemic administration; cited from earlier work
[2] = system: serotonin release in the dorsal raphe nucleus; details: rat; together with paroxetine; cited from earlier work

melting point [°C] | Compound | serotonin release in the cortex [1] | effect of paroxetine on serotonin release in the dorsal raphe nucleus [2]
203 | CC1(C)c2ccc([N+](=O)[O-])cc2S(=O)(=O)N1CCCN1CCN(c2cccc3ccccc23)CC1 | – | –
151 | CC1(C)c2ccccc2S(=O)(=O)N1CCCN1CCN(c2ccc(Cl)c3ccccc23)CC1 | – | –
160 | COc1ccccc1N1CCN(CC(O)CN2C(C)(C)c3ccccc3S2(=O)=O)CC1 (stereo not drawn) | – | –
179 | CCC1(CC)c2ccccc2S(=O)(=O)N1CCCN1CCN(c2cccc3ccccc23)CC1 | – | –
63 | CC1(C)c2ccccc2S(=O)(=O)N1CCCN1CCN(c2ccc3ccccc3n2)CC1 | – | –
193 | C=C(CN1CCN(c2cccc3ccccc23)CC1)CN1C(C)(C)c2ccccc2S1(=O)=O | – | –
269 | CC1(C)c2ccc(-n3cccc3)cc2S(=O)(=O)N1CCCN1CCN(c2cccc3ccccc23)CC1 (as salt: hydrochloride) | – | –
291 | Cc1cccc(N2CCN(CCN3C(C)(C)c4ccccc4S3(=O)=O)CC2)c1C (as salt: hydrochloride) | – | –
271 | CC1(C)c2ccccc2S(=O)(=O)N1CCN1CCN(c2cccc3c2CCC3)CC1 (as salt: hydrochloride) | – | –
263 | CC1(C)c2ccccc2S(=O)(=O)N1CCCN1CCN(c2ncccn2)CC1 (as salt: hydrochloride) | – | –
207 | COc1ccc(N2CCN(CCN3C(C)(C)c4ccccc4S3(=O)=O)CC2)cc1 (as salt: hydrochloride) | – | –
269 | CC1(C)c2ccccc2S(=O)(=O)N1CCCN1CCN(c2nc(-c3ccccc3)nc3ccccc23)CC1 (as salt: hydrochloride) | – | –
218 | Cc1ccc(C)c(N2CCN(CCCN3C(C)(C)c4ccccc4S3(=O)=O)CC2)c1 (as salt: hydrochloride) | – | –
228 | CC1(C)c2ccccc2S(=O)(=O)N1CCN1CCN(c2ccccc2C#N)CC1 (as salt: hydrochloride) | – | –
178 | CC1(C)c2ccccc2S(=O)(=O)N1CCN1CCN(c2ncnc3ccccc23)CC1 (as salt: hydrochloride) | – | –
282 | CC1(C)c2ccccc2S(=O)(=O)N1CCN1CCN(c2cccc3ccccc23)CC1 (as salt: hydrochloride) | – | –
– | COc1ccc(NC(=O)c2ccc(-c3ccc(-c4noc(C)n4)cc3C)cc2)cc1N1CCN(C)CC1 [GR 127 935] | reduces serotonin release | potentiated
